Laboratory results published in publication PMC8394784, “Analogs of a Natural Peptaibol Exert Anticancer Activity in Both Cisplatin- and Doxorubicin-Resistant Cells and in Multicellular Tumor Spheroids” (International Journal of Molecular Sciences, 2021).

Tests used:
[1] = system: HDLM-2dx (doxorubicin-resistant clone of HDLM-2); test: cells; settings: for fold resistance (FR): ratio IC50 HDLM-2dx / IC50 HDLM-2
Experimental: (§1) Authenticated cHL-derived cell lines L-1236, L-428, KM-H2, and HDLM-2 were from DSMZ (Braunschweig, Germany). Doxorubicin-resistant KM-H2dx and HDLM-2dx cells were developed in our laboratory by continuous exposure of KM-H2 and HDLM-2 cells to 35 nM doxorubicin. HDLM-2dx and KM-H2dx cells were maintained in doxorubicin and cultured without the drug 72 h before use. All cell lines are here collectively called “cHL cells”. Authenticated OvCa cell lines A2780 and A2780cis were from Sigma-Aldrich, (Milano, Italy) SKOV3 (HTB-77) were obtained from the American Type Culture Collection (ATCC), OVCAR5 (NIH) were provided by Dr. Baldassarre (CRO, Aviano, Italy). A2780cis cells were maintained in 1 µM cisplatin and cultured without the drug for 72 h before use. […] Peripheral blood mononuclear cells (PBMCs) were obtained from healthy donor blood by density gradient centrifugation on a Ficoll-Paque PLUS (GE Healthcare); they were washed twice with PBS before use and cultured in RPMI-1640 medium containing 10% fetal bovine serum. Human dermal fibroblasts, a generous gift of Dr. Capuano [44], were maintained in Dulbecco′s Modified Eagle′s Medium (DMEM) high glucose (Gibco) plus 10% fetal bovine serum.
(§2) OvCa cells and fibroblasts were seeded in 96 well (10.0 × 10^3) the day before treatment to allow cell adherence. […] Half maximal inhibitory concentrations (IC50) were calculated using CalcuSyn software, v2.1 (Biosoft, Ferguson, MO, USA). Fold resistance (FR) was calculated as the ratio of the IC50 of drug-resistant cell line (KM-H2dx, HDLM-2dx, and A2780cis) to that of the respective parental cell line (KM-H2, HDLM-2, and A2780).

[2] = system: A2780cis (cisplatin-resistant clone of A2780); test: cells; settings: for IC50: A2780cis, 24 h; for fold resistance (FR): ratio IC50 A2780cis / IC50 A2780
Experimental: as §1, §2

[3] = system: KM-H2dx (doxorubicin-resistant clone of KM-H2); test: cells; settings: for fold resistance (FR): ratio IC50 KM-H2dx / IC50 KM-H2
Experimental: as §1, §2

KM-H2 = test: cells; settings: KM-H2, 24 h
Experimental: as §2

L-428 = test: cells; settings: L-428, 24 h
Experimental: as §2

HDLM-2 = test: cells; settings: HDLM-2, 24 h
Experimental: as §2

OVCAR5 = test: cells
Experimental: as §2

SKOV3 = test: cells
Experimental: as §2

L-1236 = test: cells; settings: L-1236, 24 h
Experimental: as §2

A2780 = test: cells; settings: A2780, 24 h
Experimental: as §2

[4] = system: A2780, A2780cis, and KM-H2 cells; format: cell-based, human; settings: 24 h
Experimental: Supplemental Figure S6. Cytotoxic activity of K6-FITC. A2780, A2780cis, and KM-H2 cells were cultured with K6-FITC. After 24 hours cell viability was evaluated by MTT assay for A2780 and A2780cis and by MTS assay for KM-H2 cells. Results are mean and SD of three independent experiments. IC50 was calculated using Calcusyn software.
(1 picture or pasted object on this page, not shown here)

[5] = system: A2780 and HDLM-2 vs PBMCs and fibroblasts; test: K6-FITC uptake by flow cytometry, tumor vs normal cells; format: cell-based, human; settings: 0.25–2.5 µM K6-FITC, 5, 30 and 120 min, three independent experiments
Experimental: For flow cytometry, cells were treated with different concentrations of K6-FITC (0–2.5 µM). After 5, 30 and 120 min of incubation, cells were washed and evaluated for green fluorescence intensity by flow cytometry on a BD FACSCanto II flow cytometer. Annexin-V assay: cells were treated with peptaibols for 24 h, then stained for 15 min with FITC AnnexinV (Thermo Fisher Scientific, Monza, Italy) and 7-Amino-Actinomycin D (7AAD) (BD Pharmingen, Milano, Italy) and analyzed using flow cytometry. Data were analyzed using BD FACSDiva v.8.0.1 software (BD Biosciences, Milano, Italy).

SKOV3-MCTSs [6] = test: K6-FITC penetration in spheroids, confocal microscopy; format: cell-based, human; settings: 20 µM K6-FITC, four-day-old single spheroids, confocal time-lapse
Experimental: (§3) The uptake of peptaibols was evaluated by confocal microscopy and flow cytometry using the fluorescent K6-FITC analog. For confocal microscopy, cells were plated onto glass bottom culture dishes and treated with K6-FITC (30 µM) and propidium iodide (PI) 2 µg/mL. K6-FITC uptake was monitored using confocal microscope in time-lapse xyzt acquisition mode (Leica DM IRE2) keeping cells at 37 °C and 5% CO2. To trace peptaibol penetration in spheroids, single four-day-old SKOV3-MCTs were incubated with K6-FITC (20 µM) and images acquired using confocal microscopy.

A2780 and A2780cis = test: K6-FITC uptake, time-lapse confocal microscopy with PI; format: cell-based, human; settings: 30 µM K6-FITC, 37 °C
Experimental: as §3

KM-H2 cells = test: as above; format: cell-based, human; settings: KM-H2, 30 µM K6-FITC, PI 2 µg/mL, 60 min of incubation, 37 °C
Experimental: as §3

SKOV3-MCTSs [7] = test: SKOV3 spheroid cell viability, PrestoBlue; format: cell-based, human; settings: 24 h treatment
Excerpt: Multiple SKOV3-MCTSs were obtained by seeding 10.0 × 10^3 cells in non-adherent conditions.

SKOV3-MCTSs [8] = test: SKOV3 spheroid (MCTS) volume; format: cell-based, human; settings: 25 µM, 3 days of treatment, four-day old single spheroids
Experimental: To obtain the 3 dimensional (3D) SKOV3-MCTSs, cells were cultured in non-adherent conditions on plates coated twice with 20 mg/mL of poly(2-hydroxyethyl methacrylate) (poly-HEMA; Sigma) in 95% ethanol. Single spheroids with defined size were generated by culturing 1.0 × 10^3 SKOV3 cells onto poly-HEMA-coated 96-well for 4 days. Then, single SKOV3-MCTSs were treated with increasing concentrations of peptaibols (0–25 µM). SKOV3-MCTSs size was measured and photographed up to 72 h after treatment initiation using an inverted microscope (Eclipse TS/100, Nikon) with the DS Camera Control Unit DS-L2 photo micrographic system. SKOV3-MCTSs volumes were calculated using the formula: (width^2 × length × 3.14)/6 [47].

human fibroblasts = test: Cytotoxicity in healthy cells, MTT assay; settings: healthy human dermal fibroblasts, 24 h, mean (SD)
Experimental: (§4) Authenticated cHL-derived cell lines L-1236, L-428, KM-H2, and HDLM-2 were from DSMZ (Braunschweig, Germany). Doxorubicin-resistant KM-H2dx and HDLM-2dx cells were developed in our laboratory by continuous exposure of KM-H2 and HDLM-2 cells to 35 nM doxorubicin. HDLM-2dx and KM-H2dx cells were maintained in doxorubicin and cultured without the drug 72 h before use. All cell lines are here collectively called “cHL cells”. Authenticated OvCa cell lines A2780 and A2780cis were from Sigma-Aldrich, (Milano, Italy) SKOV3 (HTB-77) were obtained from the American Type Culture Collection (ATCC), OVCAR5 (NIH) were provided by Dr. Baldassarre (CRO, Aviano, Italy). A2780cis cells were maintained in 1 µM cisplatin and cultured without the drug for 72 h before use. […]
as §2

[9] = system: human peripheral blood mononuclear cells (PBMCs); test: Cytotoxicity in healthy cells, MTS assay; settings: 24 h, mean (SD)
Experimental: as §4, §2

| SMILES | IC50 ([1]; HDLM-2dx, 24 h, MTS, mean (SD)) | fold resistance (FR) [1] | IC50 ([2]; MTT, mean (SD)) | fold resistance (FR) [2] | IC50 ([3]; KM-H2dx, 24 h, MTS, mean (SD)) | fold resistance (FR) [3] | IC50 (KM-H2; MTS, mean (SD)) | IC50 (L-428; MTS, mean (SD)) | IC50 (HDLM-2; MTS, mean (SD)) | IC50 (OVCAR5; OVCAR5, 24 h, MTT, mean (SD)) | IC50 (SKOV3; SKOV3, 24 h, MTT, mean (SD)) | IC50 (L-1236; MTS, mean (SD)) | IC50 (A2780; MTT, mean (SD)) | further results |
| --- | --- | --- | --- | --- | --- | --- | --- | --- | --- | --- | --- | --- | --- | --- |
| N.N.[Cl][Pt][Cl] [Cisplatin, cisplatin] | 4 µM | 3.11 | 10.4 µM | 8 | 1.2 µM | 2.6 | 0.5 µM | 0.5 µM | 1.3 µM | 7.7 µM | 7.7 µM | 0.8 µM | 1.3 µM |  |
| COc1cccc2c1C(=O)c1c(O)c3c(c(O)c1C2=O)C[C@@](O)(C(=O)CO)C[C@@H]3O[C@H]1C[C@H](N)[C@H](O)[C@H](C)O1 [Doxorubicin] |  | 9 |  | 5.6 |  | 9 |  |  |  |  |  |  |  | IC50 ([1]; Homo sapiens, HDLM-2, 24 h): 0.368 µM; IC50 ([2]; Homo sapiens): 0.116 µM; IC50 ([3]; Homo sapiens, KM-H2, 24 h): 0.202 µM; IC50 (KM-H2; Homo sapiens): 0.0221 µM; IC50 (L-428; Homo sapiens): 0.0184 µM; IC50 (HDLM-2; Homo sapiens): 0.0405 µM; IC50 (OVCAR5; Homo sapiens, OVCAR-5, 24 h): 0.47 µM; IC50 (SKOV3; Homo sapiens, SK-OV-3, 24 h): 0.13 µM; IC50 (L-1236; Homo sapiens): 0.0464 µM; IC50 (A2780; Homo sapiens): 0.0204 µM |
| CCCCCCCC(=O)NC(C)(C)C(=O)NCC(=O)N[C@@H](CC(C)C)C(=O)NC(C)(C)C(=O)NCC(=O)N[C@@H](CCCCN)C(=O)N[C@@H](CC(C)C)C(=O)NC(C)(C)C(=O)NCC(=O)N[C@H](C(=O)N[C@@H](CC(C)C)C(=O)NCCNC(=S)Nc1ccc2c(c1)C(=O)OC21c2ccc(O)cc2Oc2cc(O)ccc21)[C@@H](C)CC [K6-FITC] |  |  | 29 µM |  |  |  | 30 µM |  |  |  |  |  | 24.5 µM | IC50 [4]: ~30 µM; uptake (mean fluorescence intensity) by tumor cells compared with normal cells [5]: in a higher quantity and in a faster way; penetration into SKOV3-MCTSs (SKOV3-MCTSs [6]): rapidly and deeply penetrated; uptake (A2780 and A2780cis): rapidly taken up in both cell lines; uptake and PI staining (KM-H2 cells): all cells were double stained |
| CCCCCCCC(=O)NC(C)(C)C(=O)NCC(=O)N[C@@H](CC(C)C)C(=O)NC(C)(C)C(=O)NCC(=O)N[C@@H](CCCCN)C(=O)N[C@@H](CC(C)C)C(=O)NC(C)(C)C(=O)NCC(=O)N[C@H](C(=O)N[C@H](CO)CC(C)C)[C@@H](C)CC [K6-Lol] | 11.9 µM | ~1 | 9.1 µM |  | 7.2 µM | ~1 | 7.5 µM | 8.9 µM | 12.6 µM | 7.5 µM | 8.4 µM | 11.7 µM | 7.9 µM | SKOV3-MCTS cell viability (SKOV3-MCTSs [7]): dose-dependent decrease; SKOV3-MCTS volume (SKOV3-MCTSs [8]): completely eliminated them; IC50 (human fibroblasts): 15.0 (1.4) µM; IC50 [9]: 7.1 (0.4) µM |
